Columns and labels:
RORγt-LBD = biological target: T1, RORγt-LBD (Homo sapiens, UniProt P51449); experiment: Time-resolved fluorescence resonance energy-transfer assay (TR-FRET), co-activator peptide recruitment; assay type: biochemical; set-up: TR-FRET Biochemical Amax: unit not given here; details: for EC50: His-RORγt-LBD 30 nM, SRC peptide 500 nM, agonistic activity, averages of one or more measurements, read-out: TR-FRET Biochemical EC50/; for TR-FRET Biochemical Amax: upper activation limit, His-RORγt-LBD, SRC peptide
T1 sequence (P51449 269-508 limits assumed): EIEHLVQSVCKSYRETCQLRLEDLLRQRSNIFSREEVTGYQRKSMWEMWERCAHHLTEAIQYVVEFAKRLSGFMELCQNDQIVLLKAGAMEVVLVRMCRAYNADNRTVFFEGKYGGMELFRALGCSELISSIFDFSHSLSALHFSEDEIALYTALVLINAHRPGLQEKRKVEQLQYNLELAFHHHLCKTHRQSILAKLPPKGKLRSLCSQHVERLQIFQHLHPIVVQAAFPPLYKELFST
Outline: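 Eu-anti-His-labelled His-RORγt-LBD (30 nM final) recruits biotin-SRC co-activator peptide (500 nM final), detected via APC-streptavidin (5 nM) and Eu-anti-His (0.25 nM). Buffer was Tris/KCl/EDTA at pH 7.0 with 0.01% Triton X-100 and 1 mM DTT. Compounds were tested at 7 points in 5-fold dilutions. Plates were incubated overnight at 4 °C then 1 h at RT, and agonism was read as the 665/615 nm ratio.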

RORγt = biological target: T2, RORγt (Homo sapiens, UniProt P51449); experiment: RORγt cellular reporter gene detection assay; assay type: cell-based; details: 24 hrs; for EC50: HEK 293 cells co-transfected with pFN26A-RORγt-LBD and pG14.35, in presence of antagonist Ursolic acid, top concentration 50 μM; for Cellular Reporter Assay Amax: upper activation limit, HEK 293 cells, in presence of antagonist Ursolic acid;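 as to Cellular Reporter Assay Amax: Ursolic Acid added as 5 µL of 20 µM medium per well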
T2 construct: The plasmid of pFN26A-RORγt-LBD and pG14.35 (Promega, Cat. No. E1370) were co-transfected into HEK 293 cells; expressed in transfected cells; host or cells: HEK 293 cells (Cat. No. GNHu18)
T2 sequence (P51449 269-508 limits assumed): T1 sequence (P51449 269-508 limits assumed)
Outline: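 HEK293 cells co-transfected with RORγt-LBD and luciferase reporter plasmids, treated with Ursolic acid antagonist plus compound in 4-fold dilutions from 50 μM for 24 h at 37° C. Firefly and Renilla luminescence read; EC50 and Amax from four-parameter fit.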

Row | SMILES | EC50 (RORγt-LBD) [µM] | TR-FRET Biochemical Amax (RORγt-LBD) | EC50 (RORγt) [µM] | Cellular Reporter Assay Amax (RORγt)
1 | O=S(=O)(c1cccc(C(F)(F)F)c1)N1C[C@@H]2CN(C[C@H](O)CO)CCN2c2ccc(/C=C/c3c(Cl)cccc3C(F)(F)F)cc21 [Example 36, (S)-3-((S)-8-((E)-2-chloro-6-(trifluoromethyl)styryl)-6-((3-(trifluaromethyl)phenyl)sulfonyl)-1,2,4,4a,5,6-hexahydro-3H-pyrazino[1,2-a]quinoxalin-3-yl)-propane-1,2-diol] | 0.0249 | 1.23 | 0.501 | 4.1
2 | N#CC(CO)(CO)N1CCN2c3ccc(-c4cc(F)cc(OC(F)F)c4)cc3N(S(=O)(=O)c3cccc(C(F)(F)F)c3)C[C@@H]2C1 [Example 74, (S)-2-(8-(3-(difluoromethoxy)-5-fluorophenyl)-6-((3-(trifluoromethyl)phenyl)sulfonyl)-1,2,4,4a,5,6-hexahydro-3H-pyrazino[1,2-a]quinoxalin-3-yl)-3-hydroxy-2-(hydroxymethyl)propanenitrile] | 0.0451 | 1.20 | 1.04 | 6.2
3 | CS(=O)(=O)N1CCN2c3ccc(/C=C/c4c(Cl)cccc4C(F)(F)F)cc3N(S(=O)(=O)c3cccc(C(F)(F)F)c3)C[C@@H]2C1 [Example 17, (S,E)-8-(2-chloro-6-(tri-fluoromethyl)styryl)-3-(methylsulfonyl)-6-((3-(trifluoromethyl)phenyl)sulfonyl)-2,3,4,4a,5,6-hexahydro-1H-pyrazino [1,2-a]quinoxaline] | 0.0296 | 0.82 | 0.603 | 4.2
4 | NC(=O)CN1CCN2c3ccc(/C=C/c4c(Cl)cccc4C(F)(F)F)cc3N(S(=O)(=O)c3cccc(C(F)(F)F)c3)C[C@@H]2C1 [Example 59, (S,E)-2-(8-(2-chloro-6-(trifluoromethyl)styryl)-6-((3-(trifluoromethyl)phenyl)sulfonyl)-1,2,4,4a,5,6-hexahydro-3H-pyrazino[1,2-a]quinoxalin-3-yl)acetamide] | 0.1 | 1.10 | 0.602 | 3.5
5 | C/C(=C\c1ccc2c(c1)N(S(=O)(=O)c1cccc(C(F)(F)F)c1)C[C@@H]1CN(CC(=O)OC(C)C)CCN21)c1c(F)cccc1Cl [Example 48, isopropyl (S,E)-2-(8-(2-(2-chloro-6-fluorophenyl)prop-1-en-1-yl)-6-((3-(trifluoromethyl)phe-nyl)sulfonyl)-1,2,4,4a,5,6-hexa-hydro-3H-pyrazino[1,2-a]quinox-alin-3-yl)acetate] | 0.0107 | 0.67 | 0.283 | 1.9
6 | CN1c2ccc(C3=CC(C)(C)OC(C)(C)C3)cc2N(S(=O)(=O)c2cccc(C(F)(F)F)c2)C[C@@H]1CCC(=O)O [Example 118, (S)-3-(1-methyl-6-(2,2,6,6-tetramethyl-3,6-dihydro-2H-pyran-4-yl)-4-((3-(trifluoromethyl)phenyl)sulfonyl)-1,2,3,4-tetrahydroquinoxalin-2-yl)propanoic acid] | 0.204 | 0.36 | 0.223 | 1.0
7 | C/C(=C\c1ccc2c(c1)N(S(=O)(=O)c1cccc(C(F)(F)F)c1)C[C@@H]1C[C@](C)(OCCC(=O)O)CCN21)c1c(F)cccc1Cl [Example 121] | 0.0121 | 0.98 | 0.378 | 2.4
8 | O=S(=O)(c1cccc(C(F)(F)F)c1)N1C[C@@H]2CNCCN2c2ccc(-c3cc(F)cc(OC(F)F)c3)cc21 [Example 12, (S)-8-(3-(difluoromethoxy)-5-fluorophenyl)-6-((3-(trifluoromethyl)phenyl)sulfonyl)-2,3,4,4a,5,6-hexa-hydro-1H-pyrazino[1,2-a]quinoxaline] | 0.136 | 0.67 | 2.39 | 4.3
9 | CN1c2ccc(-c3cc(F)cc(OC(F)F)c3)cc2N(S(=O)(=O)c2cccc(C(F)(F)F)c2)C[C@@H]1CCC(=O)O [Example 5, (S)-3-(6-(3-(difluorome-thoxy)-5-fluorophenyl)-1-methyl-4-((3-(trifluorometh-yl)phenyl)sulfonyl)-1,2,3,4-tetrahydroquinoxalin-2-yl)propanoic acid] | 0.00968 | 1.39 | 1.03 | 5.0
10 | O=C(O)CCOC1CCN2c3ccc(-c4cc(F)cc(OC(F)F)c4)cc3N(S(=O)(=O)c3cccc(C(F)(F)F)c3)C[C@@H]2C1 (stereo partly drawn) [Example 109, 3-(((6aS)-3-(3-(difluoromethoxy)-5-fluorophenyl)-5-((3-(trifluoromethyl)phenyl)sulfonyl)-6,6a,7,8,9,10-hexahydro-5H-pyrido[1,2-a]quinoxalin-8-yl)oxy)propanoic acid] | 0.0175 | 0.65 | 0.468 | 5.9
11 | O=S(=O)(c1cccc(C(F)(F)F)c1)N1C[C@@H]2CN(C[C@@H](O)CO)CCN2c2ccc(-c3cc(F)cc(OC(F)F)c3)cc21 [Example 39, (R)-3-((S)-8-(3-(difluorome-thoxy)-5-fluorophenyl)-6-((3-(trifluoromethyl)phenyl)sulfonyl)-1,2,4,4a,5,6-hexahydro-3H-pyrazino[1,2-a]quinoxalin-3-yl) propane-1,2-diol] | 0.0336 | 0.58 | 1.24 | 2.2
12 | COC(=O)CN1CCN2c3ccc(/C=C(\C)c4c(F)cccc4Cl)cc3N(S(=O)(=O)c3cccc(C(F)(F)F)c3)C[C@@H]2C1 [Example 44, methyl (S,E)-2-(8-(2-(2-chloro-6-fluorophenyl)prop-1-en-1-yl)-6-((3-(trifluoromethyl)phenyl)sulfonyl)-1,2,4,4a,5,6-hexahydro-3H-pyrazino[1,2-a]quinoxalin-3-yl)acetate] | 0.0235 | 1.04 | 0.256 | 4.2
13 | O=S(=O)(c1cccc(C(F)(F)F)c1)N1CCNc2ccc(-c3cc(F)cc(OC(F)F)c3)cc21 [Example 2, 7-(3-(difluoromethoxy)-5-fluorophenyl)-1-((3-(trifluoromethyl)phenyl)sulfonyl)-1,2,3,4-tetrahydroquinoxaline] | 0.0181 | 1.85 | 0.163 | 3.1
14 | CC(C)OC(=O)CN1CCN2c3ccc(/C=C/c4c(Cl)cccc4C(F)(F)F)cc3N(S(=O)(=O)c3cccc(C(F)(F)F)c3)C[C@@H]2C1 [Example 47, isopropyl (S,E)-2-(8-(2-chloro-6-(trifluoromethyl)styryl)-6-((3-(trifluoromethyl)phenyl)sulfonyl)-1,2,4,4a,5,6-hexahydro-3H-pyrazino[1,2-a]quinoxalin-3-yl) acetate] | 0.00351 | 0.77 | 0.75 | 2.1
15 | C/C(=C\c1ccc2c(c1)N(S(=O)(=O)c1cccc(C(F)(F)F)c1)C[C@@H]1CN(S(C)(=O)=O)CCN21)c1c(F)cccc1Cl [Example 18, (S,E)-8-(2-(2-chloro-6-fluorophenyl)prop-1-en-1-yl)-3-(methylsulfonyl)-6-((3-(trifluoromethyl)phenyl)sulfonyl)-2,3,4,4a, 5,6-hexahydro-1H-pyrazino[1,2-a]quinoxaline] | 0.0151 | 0.62 | 0.178 | 4.3
16 | N#CC1(N2CCN3c4ccc(-c5cc(F)cc(OC(F)F)c5)cc4N(S(=O)(=O)c4cccc(C(F)(F)F)c4)C[C@@H]3C2)CCC1 [Example 77, (S)-1-(8-(3-(difluoromethoxy)-5-fluorophenyl)-6-((3-(trifluoro-methyl)phenyl)sulfonyl)-1,2,4,4a,5,6-hexahydro-3H-pyra-zino[1,2-a]quinoxalin-3-yl)cyclo-butane-1-carbonitrile] | 0.0183 | 0.95 | 1.47 | 3.7
17 | C/C(=C\c1ccc2c(c1)N(S(=O)(=O)c1cccc(C(F)(F)F)c1)C[C@@H]1CN(C(C)(C)C(=O)O)CCN21)c1c(F)cccc1Cl [Example 56, (S,E)-2-(8-(2-(2-chloro-6-fluoro-phenyl)prop-1-en-1-yl)-6-((3-(trifluoromethyl)phenyl)sulfo-nyl)-1,2,4,4a,5,6-hexahydro-3H-pyrazino[1,2-a]quinoxalin-3-yl)-2-methylpropanoic acid] | 0.0445 | 0.71 | 0.622 | 3.2
